Entries after “also recorded” stand apart in the source; their conditions may differ. Bridge positions count the residues as written; N and C are the ends. Peptide text beside a SMILES is read from it.
What was measured:
C. albicans 43001 = assay: Kinetics of candidacidal activity, liquid suspension assay; assay type: cell-based; settings: PIPES-glucose buffer
Description: (§1) Kinetics of RTD-1 candidacidal activity was determined at peptide concentrations ranging from 0 to 10 µg/ml using a liquid suspension assay described previously. Overnight cultures of C. albicans 53264 or 43001 were grown to mid-log phase in 5% yeast peptone dextrose broth (YPD) (Difco) at 30 °C. Approximately 2 × 10^6 CFU/ml were incubated with 0, 0.3, 1, 3 and 10 µg/ml RTD-1 or 10 µg/ml caspofungin, suspended in 10 mM PIPES, pH 7.4, plus 5 mM glucose (PG), in 96-well plates with shaking at 60 RPM at 37 °C. At timed intervals, samples were diluted 1:1000 fold into PG buffer and aliquots plated onto YPD agar plates (TekNova), and surviving organisms quantified by colony counting after incubation for 24 h at 30 °C.

C. albicans 53264 [1] = assay: as above; assay type: cell-based; settings: PIPES-glucose buffer
Description: as §1

[2] = tested on: C. albicans SC5314 biofilms; assay: Biofilm XTT metabolic assay; assay type: cell-based
Description: The antifungal activities of RTD-1, caspofungin and fluconazole were evaluated against biofilms of C. albicans SC5314 and 53264 essentially as described by Pierce et al.[67]. Briefly, biofilms established for 0 h (preadhesion), 2 h (adherent), or 24 h (mature) were developed by adding 1 × 10^5 yeast cells in 50 or 100 µl of RPMI-1640 to wells of flat-bottom 96-well microtiter plates (Costar, Corning, NY). Fifty or 100 µl aliquots of serial 2-fold dilutions of peptide or antifungal drugs were added to wells in triplicate and incubated for 24 h or 48 h prior to analysis of biofilm metabolic activities. Concentrations of reagents used were as follows: RTD-1 - 0.09 – 100 µg/ml (0.05–48 µM), Fluco – 1–250 µg/ml (3.3–816.3 µM); Caspo- 0.003–8 µg/ml ([…]–7.3 µM). Analysis of the effect of each agent on Candida biofilms was performed using an XTT colorimetric assay. One hundred µl of 1 µM XTT/menadione added to each biofilm well, plates were incubated in the dark for 3 h at 37 °C, and 80 µl of supernatant was transferred to a new 96-well flat-bottom microtiter plate (Greiner Bio-one, Monroe, NC). Absorbance was measured at 490 nm on a SpectraMax® i3x (Molecular Devices). Readings were plotted as average of triplicates after subtracting the corresponding values for negative controls (XTT/menadione only).

C. albicans SC5314 = assay: Systemic candidiasis model, survival and renal fungal burden; assay type: in vivo, BALB/c mice
Description: The efficacy of RTD-1 in vivo was evaluated in an established model of systemic candidiasis using C. albicans SC5314. Both immunocompetent and immunosuppressed mouse models are employed in preclinical studies of systemic candidiasis. Since many of our preliminary studies employed the […] model, we conducted efficacy studies with RTD-1 and reference antifungal drugs in immunocompetent BALB/c mice. Mice were challenged i.v. with 3 × 10^5 blastospores at T = 0, which rapidly produces disseminated candidiasis and colonizes major organs in a manner resembling systemic candidiasis in humans. […] We analyzed the effect of a single 5 mg/kg dose of RTD-1 administered i.v., s.c., or i.p. immediately after i.v. fungal challenge, with i.p. saline as vehicle control. Fluco and Caspo, administered i.p. at 5 mg/kg, were used as drug comparators. […] In subsequent studies, antifungal agents were administered i.p. to circumvent potentially confounding effects resulting from treatment by the same route as infection, which was i.v. in all experiments.
(§2) BALB/c female mice (7–8 weeks old) and CD-1 female mice (4–5 weeks old) were obtained from Charles River Laboratories and allocated randomly in groups of five mice per cage. Mice were maintained on a 12 h light/dark cycle in thermostatically controlled rooms for the duration of the experiment. C. albicans inocula were prepared fresh each day from saturated cultures grown overnight in YPD medium, washed in sterile PBS, and fungi were counted with hemocytometer. Stock suspensions were prepared in sterile PBS. BALB/c mice were challenged with 2 × 10^6 CFU/ml wild-type C. albicans reference strain SC5314, while CD-1 mice were challenged with 1.8 × 10^7 CFU/ml (0.15–0.2 ml) C. albicans clinical isolate 53264 by i.v. injection into the lateral caudal tail vein using a 28 G 1/2 inch needle. Animals were treated by i.v., s.c., or i.p. routes immediately post-infection (p.i.) or 24 h p.i. with sterile saline (control), RTD-1, fluconazole, or caspofungin administered at the concentrations indicated in a 0.200 ml. Mice were weighted and monitored daily for general clinical condition. Mice were euthanized as approved by the USC IACUC and in compliance with the National Institutes of Health Guide for the Care and Use of Laboratory Animals. All experiments were repeated at least three times.
(§3) To assess systemic fungal clearance, renal fungal burden was determined. Mice were euthanized at times indicated, and both kidneys were weighed, homogenized in 5 ml of sterile PBS, and serial dilutions of homogenate were plated on YPD agar plates and incubated at 30 °C for 2 days. CFU per gram of kidney was calculated.

C. albicans 53264 [3] = assay: Systemic MDR candidiasis model, survival and renal fungal burden; assay type: in vivo, CD-1 mice; settings: for survival (log-rank): 1.8 × 10^7 blastospores i.v., 40 days
Description: (as in Fig. 3d). CD-1, rather than BALB/c mice were used in the C. albicans 53264 challenge studies as this mouse strain was employed by Wiederhold et al. in the assessment of caspofungin efficacy against this pathogen. […] Fungal burdens were determined in kidneys of long term survivors in the RTD-1, Caspo, and Fluco-treated cohorts (euthanized at day 40) and from moribund mice from the survival study in Fig. 7a.
as §2, §3

[4] = 3 µg/ml, by 30 min of incubation
[5] = 5 mg/kg i.p. once a day for 7 days, first dose 24 h after infection, 30 d
[6] = 5 mg/kg i.p. once per day for 7 days beginning 24 h p.i.

Structure (SMILES): CC[C@H](C)[C@@H]1NC(=O)[C@@H]2CSSC[C@H](NC(=O)[C@H](CCCNC(=N)N)NC(=O)[C@@H]3CSSC[C@H](NC1=O)C(=O)N[C@@H]([C@@H](C)O)C(=O)N[C@@H](CCCNC(=N)N)C(=O)NCC(=O)N[C@@H](Cc1ccccc1)C(=O)N3)C(=O)N[C@@H](CC(C)C)C(=O)N[C@H]1CSSC[C@H](NC(=O)[C@H](C(C)C)NC(=O)CNC(=O)[C@H](CCCNC(=N)N)NC(=O)[C@H](CCCNC(=N)N)NC1=O)C(=O)N[C@@H](CCCNC(=N)N)C(=O)N2 [RTD-1, Rhesus theta (θ) defensin-1] (cyclo(GFCRCLCRRGVCRCICTR); disulfide 3-16, 5-14, 7-12 (inferred); ring closure inferred)
- fungicidal activity, time-kill (C. albicans 43001; [4]): sterilized the incubation mixture
- fungicidal activity, time-kill (C. albicans 53264 [1]; [4]): sterilized the incubation mixture
- biofilm inhibition (XTT) ([2]; 2- and 24 h biofilms): much more effective than Fluco
- biofilm inhibition (XTT) ([2]; pre-adhesion, 2 h adherent and 24 h mature biofilms): inhibited biofilms of drug sensitive SC5314 at each time point, but less effectively than Caspo
- survival (C. albicans SC5314; [5]): markedly enhanced survival; also recorded: more effective in enhancing survival than Fluco, and was nearly equivalent to Caspo
- kidneys with no culturable organisms detected (C. albicans SC5314; long term survivors, day 30 p.i.): 50%
- kidney fungal burden (CFU/g) (C. albicans SC5314; long term survivors, day 30 p.i., treated i.p. at T = 0, vs moribund saline treated mice): markedly reduced kidney fungal burden; also recorded: substantially more effective than treatment with Fluco
- survival (C. albicans SC5314; single 5 mg/kg dose at T = 0 (RTD-1 i.v., s.c. or i.p.; Fluco, Caspo i.p.), 3 × 10^5 blastospores i.v., 30 days, vs saline): significantly enhanced survival regardless of the routes of administration
- kidney fungal burden (CFU/g) (C. albicans SC5314; single 5 mg/kg i.p. at T = 0, by day 3 p.i., vs saline): markedly reduced fungal burden
- survival (C. albicans SC5314; single i.p. 5 mg/kg, administration delayed 24 h or 72 h (data not shown)): no survival enhancement
- survival (C. albicans SC5314; single i.p. 5 mg/kg, treatment delayed 1, 3 or 6 h after infection): enhanced survival compared to saline control
- survival (C. albicans SC5314; single i.p. dose 20 mg/kg at T = 0, vs saline): significantly accelerates death
- survival (C. albicans SC5314; single i.p. dose 10 and 20 mg/kg at T = 0, compared with 5 mg/kg Fluco): less effective than Fluco
- survival (C. albicans SC5314; single i.p. dose at T = 0, all doses of 0.1–20 mg/kg except 0.1 and 20 mg/kg, vs saline): enhanced survival significantly
- survival endpoint analysis (χ2) at day 40 p.i. (C. albicans 53264 [3]; [6]): superior to Fluco (P = 0.01) and Caspo (P = 0.001)
- survival (log-rank) (C. albicans 53264 [3]; [6]): significantly (P < 0.0001) improved survival; also recorded: superior to Caspo (P = 0.029) but not Fluco
- kidney fungal burden (CFU/g) (C. albicans 53264 [3]; long term survivors, day 40, vs moribund saline controls): significantly (P = 4.1 × 10^−5) reduced fungal burden

Structure (SMILES): CC[C@H](C)C[C@H](C)CCCCCCCCC(=O)N[C@H]1C[C@@H](O)[C@@H](NCCN)NC(=O)[C@@H]2[C@@H](O)CCN2C(=O)[C@H]([C@H](O)CCN)NC(=O)[C@H]([C@H](O)[C@@H](O)c2ccc(O)cc2)NC(=O)[C@@H]2C[C@@H](O)CN2C(=O)[C@H]([C@@H](C)O)NC1=O [Caspo, caspofungin]
- fungicidal activity, time-kill (C. albicans 43001; 10 µg/ml, 0–60 min): very little activity
- fungicidal activity, time-kill (C. albicans 53264 [1]; 10 µg/ml, 0–60 min): very little activity
- biofilm inhibition (XTT) ([2]; 2- and 24 h biofilms): reduced at concentrations >2 µg/ml
- survival (C. albicans SC5314; [5]): markedly enhanced survival
- survival (C. albicans SC5314; single 5 mg/kg dose at T = 0 (RTD-1 i.v., s.c. or i.p.; Fluco, Caspo i.p.), 3 × 10^5 blastospores i.v., 30 days, vs saline, 5 mg/kg): effective in enhancing survival; also recorded: superior to RTD-1 and Fluco treatment
- survival (log-rank) (C. albicans 53264 [3]; [6]): significantly (P < 0.0001) improved survival
